Experiments:
Yap1 mRNA [1] = experiment: Yap1 mRNA in CAL33 cells, RNA analysis (Example 36); format: cell-based, human; conditions: free uptake, approximately 48 hours
Procedure: Modified oligonucleotides described in the studies above were tested at various doses in tongue squamous cell carcinoma line CAL33. A control oligonucleotide 792169, described herein above, was also tested.
(§1) Cultured CAL33 cells at a density of 5000 cells per well were treated using free uptake with modified oligonucleotides diluted to concentrations described in the tables below. After approximately 48 hours, Yap1 mRNA levels were measured as previously described using the Human Yap1 primer-probe set RTS4814. Yap1 mRNA levels were normalized to actin-beta content, as measured by primer probe set RTS5002. Results are presented in the tables below as percent control of the amount of Yap1 mRNA relative to untreated control cells (% UTC).

SCC-9 cells = experiment: Cell proliferation assay in SCC-9 cells, CellTiter-Glo (Example 40); format: cell-based, human; conditions: free uptake, approximately 144 hours
Procedure: Modified oligonucleotides described in the studies above were tested at various doses in tongue squamous cell carcinoma cell line SCC-9. A control oligonucleotide 792169, described herein above, was also tested.
(§2) Cultured SCC-9 cells at a density of 1000 cells/well were treated using free uptake with modified oligonucleotides diluted to concentrations described in the tables below. After approximately 144 hours, cell proliferation was measured using the luminescent cell viability CellTiter-Glo® 2.0 Assay (Promega). Results are presented in the tables below as percent control of the amount of luminescence in samples treated with modified oligonucleotides relative to untreated control cells (% UTC).

NCI H747 cells = experiment: Cell proliferation assay in NCI H747 cells, CellTiter-Glo (Example 31); format: cell-based, human; conditions: free uptake, 7 days
Procedure: Modified oligonucleotides described in the studies above were tested at various doses in colorectal adenocarcinoma cell line NCI H747. A control oligonucleotide 792169 was also tested.
as §2, with “NCI H747” for “SCC-9”, “3000” for “1000”, “7 days,” for “approximately 144 hours,”

Yap1 mRNA [2] = experiment: Yap1 mRNA in SNU-1066 cells, RNA analysis (Example 44); format: cell-based, human; conditions: free uptake, approximately 48 hours
Procedure: Modified oligonucleotides described in the studies above were tested at various doses in laryngeal squamous cell carcinoma line SNU-1066. A control oligonucleotide 792169, described herein above, was also tested.
as §1, with “SNU-1066” for “CAL33”

Detroit-562 cells = experiment: Cell proliferation assay in Detroit-562 cells, CellTiter-Glo (Example 38); format: cell-based, human; conditions: free uptake, approximately 144 hours
Procedure: Modified oligonucleotides described in the studies above were tested at various doses in pharynx carcinoma cell line Detroit-562. A control oligonucleotide 792169, described herein above, was also tested.
as §2, with “Detroit-562” for “SCC-9”

[3] = Tolerability in CD-1 mice, plasma chemistry markers (Example 19); format: in vivo; conditions: male CD-1 mice, 50 mg/kg s.c. twice a week for four weeks (8 treatments), day 26
Procedure: CD-1 mice were treated with modified oligonucleotides selected from studies described above and evaluated for changes in the levels of various plasma chemistry markers.
Groups of four male CD-1 mice at 4-6 weeks of age (obtained from Charles River) were injected subcutaneously twice a week for four weeks (for a total of 8 treatments) with 50 mg/kg of modified oligonucleotides. One group of male CD-1 mice was injected with PBS. Mice were euthanized on day 26 post start of treatment (24 hrs following the final administration).

[4] = Cynomolgus monkey tolerability, hematology (Example 34); format: in vivo, cynomolgus monkeys
Procedure: To evaluate any effect of Ionis oligonucleotides in cynomolgus monkeys on hematologic parameters, blood samples of approximately 0.5 mL of blood was collected from each of the available study animals on day 44. The samples were collected in tubes containing K2-EDTA. Samples were analyzed for red blood cell (RBC) count, Hemoglobin (HGB), Hematocrit (HCT), Mean corpuscular volume (MCV), mean corpuscular hemoglobin (MCH), mean corpuscular hemoglobin concentration (MCHC), RBC Distribution Width (RCDW), reticulocyte count (Retic), platelet count (PLT), mean platelet volume (MPV), white blood cells (WBC) count, individual white blood cell counts, such as that of monocytes (MON), neutrophils (NEU), lymphocytes (LYM), eosinophils (EOS), basophils (BAS), and large unstained cells (LUC) using an ADVIA2120i hematology analyzer (Siemens, USA).

[5] = cynomolgus monkey, in vivo, sc, 35 mg/kg

1198440 (AAGTGTATGTCAGAAG; cEt, 2'-MOE, 5-methylcytosine, phosphorothioate modifications, further chemistry not given here) [compound 1198440]
human Yap1 mRNA expression (Yap1 mRNA [1]; 0.04 μM): 43 % UTC | human Yap1 mRNA expression (Yap1 mRNA [1]; 0.2 μM): 14 % UTC | human Yap1 mRNA expression (Yap1 mRNA [1]; 1 μM): 5 % UTC | human Yap1 mRNA expression (Yap1 mRNA [1]; 5 μM): 5 % UTC | Antiproliferative effect (cell proliferation, luminescence) (SCC-9 cells; 0.04 μM): 88 % UTC | Antiproliferative effect (cell proliferation, luminescence) (SCC-9 cells; 0.2 μM): 46 % UTC | Antiproliferative effect (cell proliferation, luminescence) (SCC-9 cells; 1 μM): 35 % UTC | Antiproliferative effect (cell proliferation, luminescence) (SCC-9 cells; 5 μM): 31 % UTC | Antiproliferative effect (cell proliferation, luminescence) (NCI H747 cells; 0.04 μM): 87 % UTC | Antiproliferative effect (cell proliferation, luminescence) (NCI H747 cells; 0.2 μM): 66 % UTC | Antiproliferative effect (cell proliferation, luminescence) (NCI H747 cells; 1 μM): 36 % UTC | Antiproliferative effect (cell proliferation, luminescence) (NCI H747 cells; 5 μM): 18 % UTC | human Yap1 mRNA expression (Yap1 mRNA [2]; 0.04 μM): 70 % UTC | human Yap1 mRNA expression (Yap1 mRNA [2]; 0.2 μM): 28 % UTC | human Yap1 mRNA expression (Yap1 mRNA [2]; 1 μM): 7 % UTC | human Yap1 mRNA expression (Yap1 mRNA [2]; 5 μM): 2 % UTC | Antiproliferative effect (cell proliferation, luminescence) (Detroit-562 cells; 0.04 μM): 84 % UTC | Antiproliferative effect (cell proliferation, luminescence) (Detroit-562 cells; 0.2 μM): 67 % UTC | Antiproliferative effect (cell proliferation, luminescence) (Detroit-562 cells; 1 μM): 59 % UTC | Antiproliferative effect (cell proliferation, luminescence) (Detroit-562 cells; 5 μM): 45 % UTC | ALT [3]: 121 U/L | AST [3]: 140 U/L | BUN [3]: 19 mg/dL | TBIL [3]: 0.22 mg/dL | BAS [4, 5]: 0.4% | EOS [4, 5]: 2.8% | HCT [4, 5]: 47% | HGB [4, 5]: 14 g/dL | LUC [4, 5]: 0.7% | LYM [4, 5]: 65% | MCH [4, 5]: 23 pg | MCHC [4, 5]: 29 g/dL | MCV [4, 5]: 80 fL | MON [4, 5]: 3.2% | NEU [4, 5]: 28% | PLT [4, 5]: 420 10^3/μL | RBC [4, 5]: 5.9e+06 µL⁻¹ | RCDW [4, 5]: 12% | Retic [4, 5]: 1.2% | WBC [4, 5]: 10900 µL⁻¹ | MPV ([4]; cynomolgus monkeys, 35 mg/kg subcutaneously, day 44): 7.5 fL
